Data as given in patent US11275086B2 (priority 2010, dated 2022).
Read-outs that look alike come from different tables or passages of the source.

Tested on: MTB specific T CD4+ lymphocytes
Format: cell-based, human
Conditions: for positive tests / evaluable subjects: Microbiologically checked TB patients (before therapy start) / positive tests / evaluable subjects: Recently MTB exposed subjects: anergic subjects excluded

Substance | positive tests / evaluable subjects: BCG-vaccinated controls (BCG-vaccinated controls) | positive tests / evaluable subjects: Microbiologically checked TB patients (before therapy start) | positive tests / evaluable subjects: Recently MTB exposed subjects | positive tests / evaluable subjects: Sanitary workers | positive tests / evaluable subjects: BCG-vaccinated controls | sensitivity compared with ESAT-6 derived control peptide (result in words)
AVIVRSELLTQYL (listed as Mycobacterium tuberculosis) [Peptide #2, peptide of Rv1251c] | 0/15 | 11/55 | 8/61 | 1/21 |  | 
ELMARAAVLGSAH (listed as Mycobacterium tuberculosis) [Peptide #6, peptide of Rv1251c] | 0/15 | 14/55 | 6/61 | 3/21 |  | 
GEIIFISGRLNGaa (GEIIFISGRLNGAA; listed as Mycobacterium tuberculosis) [Peptide #5, peptide of Rv0724A] | 0/15 | 18/55 | 11/61 | 5/21 |  | 
GSVRQLPSVLKPPLITLRTLTLSG (listed as Mycobacterium tuberculosis) [Peptide #3, peptide of Rv3479] |  | 27/55 | 20/61 | 7/21 | 0/15 | elevated sensitivity comparable, if not more elevated, to multiepitope ESAT-6 protein derived control peptide
RPVRRVLLFVVPSSGPAP (listed as Mycobacterium tuberculosis) [Peptide #4, peptide of Rv3479] |  | 10/55 | 13/61 | 6/21 | 0/15 | 
TAWITAVVPGLMV (listed as Mycobacterium tuberculosis) [Peptide #1, peptide of Rv1478 (Consensus VIR)] |  | 12/55 | 14/61 | 6/21 | 0/15 | 
